From US20250195431A1, “LIPID NANOPARTICLES FOR TARGETED DELIVERY OF MRNA” (Trustees of Tufts College, priority 2022, published 2025)

Legend:
IFN-γ-secreting T cells = test: T cell response by ELISPOT after two doses of spike mRNA/LNP; design: species or system mice; conditions: mouse, in vivo
[1] = system: Firefly luciferase expression; test: In vivo optimization of Lipid 88 formulations, intramuscular (I.M.) administration, bioluminescence; design: species or system mice; conditions: mouse
Experimental: Various formulations of mRNA/LNPs comprising lipid 88 were tested in vivo, including a plurality of ratios of ionizable lipids to helper lipids, and ratios of RNA to lipids. […] The luc mRNA/LNPs were then given to both adult and neonatal mice via various routes of administration (e.g., intravenously, intramuscularly, or through facial vein). After a period of time post injection (e.g., 6-80 hours), substrates of luciferase were administered to the animals and whole-body imaging was performed using IVIS imaging system.

IgG anti-spike antibody = assay type: in vivo; conditions: mice, I.M., two doses
Exon 6 of Angltl 3 = test: Base editing with mRNA encoding ABE8e and sgRNA_SA or sgRNA_SD using lipids (306O12B, L88 and L10); conditions: among 306O12B
Angptl3 = test: ABE8e mRNA/sgRNA/LNPs injected to rodents: base editing and serum biomarkers; conditions: in vivo
Experimental: Significance measured with one way ANOVA. *P<0.05 **P<0.01 ***P<0.001 ****P<0.0001.
Blood taken on day 7. […] Significance measured with one way ANOVA *P<0.05 **P<0.01 ***P<0.001 ****P<0.0001.
Significance measured by one-way ANOVA.
Next LNPs (e.g., ABE8e mRNA/sgRNA/LNPs comprising lipid 88) were injected to rodents. In some cases, one dose of 3 mg/kg LNPs was administered. In some cases, 2 doses of 3 mg/kg LNPs were administered 48 hours apart. […] Significance measured with one way ANOVA. *P<0.05 **P<0.01 ***P<0.001 ****P<0.0001. Seven days post administration of the LNPs, blood samples were collected from treated animals, and various biomarkers were measured, including Angptl3, cholesterol, triglyceride, ALT, AST, and IL-6. […] Significance measured with one way ANOVA *P<0.05 **P<0.01 ***P<0.001 ****P<0.0001. […] Significance measured with one way ANOVA *P<0.05 **P<0.01 ***P<0.001 ****P<0.0001. […] Significance measured by one-way ANOVA. […] Significance measured by one-way ANOVA.

SMILES: CCCCCCCCSSCCOC(=O)CCN(CCCN(C)CCCN(CCC(=O)OCC(CC)CCCC)CCC(=O)OCC(CC)CCCC)CCC(=O)OCC(CC)CCCC (stereo not drawn) [Lipid 65]
- T cell response (ELISPOT), comparison of LNPs (IFN-γ-secreting T cells): highest T cell response

SMILES: CCCCCCC(CCCC)COC(=O)OCCOC(=O)CCN(CCCN(C)CCCN(CCC(=O)OCCOC(=O)OCC(CCCC)CCCCCC)CCC(=O)OCCOC(=O)OCC(CCCC)CCCCCC)CCC(=O)OCCOC(=O)OCC(CCCC)CCCCCC (stereo not drawn) [Lipid 88]
- delivery of luc mRNA (bioluminescence over time) [1]: enhanced delivery of luc mRNA to the mice compared with LNPs formulated with 113O12B
- T cell response (ELISPOT), comparison of LNPs (IFN-γ-secreting T cells): highest T cell response
- anti-spike IgG titer (ELISA), comparison of LNPs (IgG anti-spike antibody): highest anti-spike IgG titer
- transfection and editing efficiency (Exon 6 of Angltl 3): ~60%
- percent of base editing, single dose vs double dose (Angptl3): maximal editing was reached with single dose
